Two molecules from article PMC8865654, “Chiral evasion and stereospecific antifolate resistance in Staphylococcus aureus” (PLoS Computational Biology, 2022) can be followed below.

In assay [1] the target is T1, Staphylococcus aureus dihydrofolate reductase (SaDHFR), wild type (Staphylococcus aureus, UniProt P0A017).
T1 construct: gene folA
The assay is described as follows: X-ray crystal structure (re-refined from 4XEC data and newly deposited); also enzyme inhibition with t-NADPH pre-incubation (Fig E in S1 Text). The assay is classed as binding.

The target in assay [2] is T1, Staphylococcus aureus dihydrofolate reductase (SaDHFR), wild type. The assay is described as follows: X-ray crystal structure (ternary with R-27); enzyme inhibition assay with isolated t-NADPH. Type of assay: biochemical.

SMILES strings stand for the structures.

T1 sequence (P0A017 2-159): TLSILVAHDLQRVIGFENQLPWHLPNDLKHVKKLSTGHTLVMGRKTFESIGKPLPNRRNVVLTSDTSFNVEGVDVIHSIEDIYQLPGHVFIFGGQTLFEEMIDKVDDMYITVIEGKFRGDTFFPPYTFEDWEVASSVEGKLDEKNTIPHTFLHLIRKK

`CCc1nc(N)nc(N)c1C#C[C@H](C)c1cc(OC)cc(-c2ccncc2)c1` [R-27]: in assay [1], the “X-ray crystal structure (re-refined from 4XEC data and newly deposited); also en” value was “the PDB ID for R-27:t-NADPH:SaDHFR is 7T7S”.
As usually defined, the IC50 is the midpoint of a concentration-inhibition curve. Higher therefore signals weaker potency. For the molecule `NC(=O)C1=CN2[C@@H]3O[C@H](COP(=O)(O)OP(=O)(O)OC[C@H]4O[C@@H](n5cnc6c(N)ncnc65)[C@H](OP(=O)(O)O)[C@@H]4O)[C@@H](O)[C@H]3O[C@@H]2CC1` [t-NADPH], the IC50 in assay [2] was found to be 111 ± 6 µM.
